Experimental data published in ChEMBL document CHEMBL3826947, “New 4-Acyl-1-phenylaminocarbonyl-2-phenylpiperazine Derivatives as Potential Inhibitors of Adenovirus Infection. Synthesis, Biological Evaluation, and Structure-activity Relationships” (J Med Chem, 2016).

What was measured:
Human adenovirus 5 [1] = assay: Antiviral activity against HAdV5 infected in 293beta5 cells assessed as inhibition of plaque formation at 10 uM after 7 days by GFP reporter gene assay relative to control; assay type: functional; conditions: Human mastadenovirus C, 293beta5, 168 h
Human adenovirus 5 [2] = assay: Antiviral activity against HAdV5 infected in human A549 cells assessed as inhibition of viral entry at 50 uM preincubated for 45 mins followed by cell addition measured after 48 hrs by GFP reporter gene assay relative to control; assay type: functional; conditions: Human mastadenovirus C
[3] = Cytotoxicity against human A549 cells assessed as cell viability after 48 hrs by Alamar blue assay; assay type: cell-based

| SMILES | inhibition at 10 µM (Human adenovirus 5 [1]) [%] | inhibition at 50 µM (Human adenovirus 5 [2]) [%] | CC50 at 48 h [3] [µM] |
| --- | --- | --- | --- |
| CC1CN(C(=O)c2cc3ccccc3o2)CCN1C(=O)Nc1ccc([N+](=O)[O-])cc1 (stereo not drawn) | 94 | 86 | 51.1 |
| CC1CN(C(=O)OC(C)(C)C)CCN1C(=S)Nc1ccc([N+](=O)[O-])cc1 (stereo not drawn) | 100 | < 20 | 26.3 |
| COc1ccc(NC(=O)N2CCN(C(=O)C(C)(C)C)CC2C)cc1 (stereo not drawn) | 0 | < 20 |  |
| CC1CN(C(=O)c2cc3ccccc3o2)CCN1C(=O)Nc1ccccc1 (stereo not drawn) | 11 | 0 |  |
| COc1ccc(C(=O)N2CCN(C(=O)OC(C)(C)C)CC2C)cc1 (stereo not drawn) | 34 | < 20 |  |
| CC(C)(C)OC(=O)N1CCN(C(=O)Nc2ccc(Cl)cc2)C(c2ccccc2)C1 (stereo not drawn) | 86 | 96 | 17.1 |
| CC1CN(C(=O)OC(C)(C)C)CCN1C(=O)Nc1ccccc1[N+](=O)[O-] (stereo not drawn) | 50 | 0 |  |
| CC(C)(C)OC(=O)N1CCN(C(=O)Nc2ccc(F)cc2)C(c2ccccc2)C1 (stereo not drawn) | 76 | 70 | 110 |
| COc1ccc(C(=O)N2CCN(C(=O)C(C)(C)C)CC2C)cc1 (stereo not drawn) | 0 | < 20 |  |
| CC(C)(C)OC(=O)N1CCN(C(=O)Nc2cc(C(F)(F)F)ccc2Cl)C(c2ccccc2)C1 (stereo not drawn) | 100 | 89 | 93.4 |
| COc1ccccc1NC(=O)N1CCN(C(=O)c2cc3ccccc3o2)CC1C (stereo not drawn) | 16 | 0 |  |
| CC(C)(C)OC(=O)N1CCN(C(=O)Nc2ccccc2[N+](=O)[O-])C(c2ccccc2)C1 (stereo not drawn) | 100 | 62 | 82.2 |
| CC1CN(C(=O)c2cc3ccccc3o2)CCN1C(=O)Nc1ccccc1Br (stereo not drawn) | 56 | 44 |  |
| O=C(c1cc2ccccc2o1)N1CCN(C(=O)Nc2ccc(F)cc2)C(c2ccccc2)C1 (stereo not drawn) | 99 | 88 | 12.5 |
| CC1CN(C(=O)c2ccccc2)CCN1C(=O)Nc1ccc([N+](=O)[O-])cc1 (stereo not drawn) | 72 | 50 |  |
| CC1CN(C(=O)C(C)(C)C)CCN1C(=O)c1ccc([N+](=O)[O-])cc1 (stereo not drawn) | 23 | < 20 |  |
| CC1CN(C(=O)OC(C)(C)C)CCN1C(=O)Nc1ccc(C(F)(F)F)cc1 (stereo not drawn) | 31 | 57 | 137 |
| COc1ccc(NC(=O)N2CCN(C(=O)OC(C)(C)C)CC2c2ccccc2)cc1 (stereo not drawn) | 79 | 39 | 133 |
| COc1ccc(NC(=O)N2CCN(C(=O)c3ccccc3)CC2C)cc1 (stereo not drawn) | 0 | 50 |  |
| CC(C)(C)C(=O)N1CCN(C(=O)Nc2ccc([N+](=O)[O-])cc2)C(c2ccccc2)C1 (stereo not drawn) | 44 | 60 | 102 |
| CC1CN(C(=O)OC(C)(C)C)CCN1C(=O)Nc1ccc(Cl)c(C(F)(F)F)c1 (stereo not drawn) | 100 | 72 | 20.8 |
| CC1CN(C(=O)c2ccccc2)CCN1C(=S)Nc1ccc([N+](=O)[O-])cc1 (stereo not drawn) | 94 | 41 | 31.4 |
| O=C(c1cc2ccccc2o1)N1CCN(C(=O)Nc2ccc(C(F)(F)F)cc2)C(c2ccccc2)C1 (stereo not drawn) | 100 | 61 | 70.7 |

| SMILES | inhibition at 10 µM (Human adenovirus 5 [1]) [%] | inhibition at 50 µM (Human adenovirus 5 [2]) [%] | CC50 at 48 h [3] [µM] |
| --- | --- | --- | --- |
| CC1CN(C(=O)c2cc3ccccc3o2)CCN1C(=O)Nc1ccc(F)cc1F (stereo not drawn) | 34 | 0 |  |
| CC1CN(C(=O)c2cc3ccccc3o2)CCN1C(=O)Nc1ccc(C(F)(F)F)cc1 (stereo not drawn) | 92 | 60 | 82.2 |
| CC1CN(C(=O)OC(C)(C)C)CCN1C(=O)Nc1ccc(Cl)cc1 (stereo not drawn) | 62 | 37 | 150 |
| COc1ccc(NC(=O)N2CCN(C(=O)OC(C)(C)C)CC2C)cc1 (stereo not drawn) | 49 |  |  |
| CC1CN(C(=O)C(C)(C)C)CCN1C(=S)Nc1ccc([N+](=O)[O-])cc1 (stereo not drawn) | 64 | < 20 |  |
| CC(C)(C)C(=O)N1CCN(C(=O)Nc2ccc(C#N)cc2)C(c2ccccc2)C1 (stereo not drawn) | 84 | 74 | 147 |
| CC(C)(C)OC(=O)N1CCN(C(=O)Nc2ccc(C#N)cc2)C(c2ccccc2)C1 (stereo not drawn) | 67 | 45 | 91.3 |
| COc1ccc(NC(=O)N2CCN(C(=O)C(C)(C)C)CC2c2ccccc2)cc1 (stereo not drawn) | 70 | 0 | 199 |
| CC1CN(C(=O)c2ccccc2)CCN1C(=O)c1ccc([N+](=O)[O-])cc1 (stereo not drawn) | 0 | < 20 |  |
| CC1CN(C(=O)OC(C)(C)C)CCN1C(=O)Nc1cc(C(F)(F)F)ccc1Cl (stereo not drawn) | 96 | 31 | 63.5 |
| CC1CN(C(=O)c2cc3ccccc3o2)CCN1C(=O)Nc1ccccc1[N+](=O)[O-] (stereo not drawn) | 91 | 0 | 203 |
| COc1ccc(C(=O)N2CCN(C(=O)c3ccccc3)CC2C)cc1 (stereo not drawn) | 0 | 0 |  |
| COc1ccc(NC(=O)N2CCN(C(=O)c3cc4ccccc4o3)CC2C)cc1 (stereo not drawn) | 34 | < 20 |  |
| CC1CN(C(=O)c2cc3ccccc3o2)CCN1C(=O)Nc1ccc(C#N)cc1 (stereo not drawn) | 83 | 78 | 118 |
| CC1CN(C(=O)c2cc3ccccc3o2)CCN1C(=O)Nc1ccc(F)cc1 (stereo not drawn) | 92 | 0 | 220 |
| Cc1ccc(NC(=O)N2CCN(C(=O)OC(C)(C)C)CC2c2ccccc2)cc1 (stereo not drawn) | 63 | 65 | 165 |
| CC(C)(C)OC(=O)N1CCN(C(=O)Nc2ccc(C(F)(F)F)cc2)C(c2ccccc2)C1 (stereo not drawn) | 71 | 75 | 42.1 |
| CC1CN(C(=O)c2cc3ccccc3o2)CCN1C(=O)Nc1ccc(Cl)cc1 (stereo not drawn) | 70 | 36 | 144 |
| CC1CN(C(=O)OC(C)(C)C)CCN1C(=O)Nc1ccc([N+](=O)[O-])cc1 (stereo not drawn) | 91 | 65 | 143 |
| CC1CN(C(=O)c2cc3ccccc3o2)CCN1C(=O)Nc1ccccc1F (stereo not drawn) | 51 | 0 |  |
| CC1CN(C(=O)C(C)(C)C)CCN1C(=O)Nc1ccc([N+](=O)[O-])cc1 (stereo not drawn) | 0 | 50 |  |
| CC1CN(C(=O)OC(C)(C)C)CCN1C(=O)c1ccc([N+](=O)[O-])cc1 (stereo not drawn) | 34 | < 20 |  |
| CC(C)(C)OC(=O)N1CCN(C(=O)Nc2ccc(Cl)c(C(F)(F)F)c2)C(c2ccccc2)C1 (stereo not drawn) | 100 | 93 | 27.5 |
